# Assay results taken from ChEMBL document CHEMBL4477217, “Discovery of 3-(3-(4-(1-Aminocyclobutyl)phenyl)-5-phenyl-3H-imidazo[4,5-b]pyridin-2-yl)pyridin-2-amine (ARQ 092): An Orally Bioavailable, Selective, and Potent Allosteric AKT Inhibitor” (J Med Chem, 2016).
# Legend:
# [1] = target: RAC-beta serine/threonine-protein kinase (Homo sapiens, UniProt P31751); set-up: species or system Sf9
# [2] = target: RAC-gamma serine/threonine-protein kinase (Homo sapiens, UniProt Q9Y243); set-up: species or system Sf9
# in vitro [3] = conditions: female, Beagle, dog, liver microsomes
# in vitro [4] = conditions: female, CD-1, mouse, liver microsomes
# in vitro [5] = conditions: human, liver microsomes
# in vitro [6] = conditions: male, CD-1, mouse, liver microsomes
# in vitro [7] = conditions: male, Beagle, dog, liver microsomes
# [8] = Solubility of the compound; format: physicochemical
# Mus musculus [9] = assay: In vivo inhibition of AKT1 phosphorylation at Thr308 in human AN3CA cells xenografted in NCr-M nude mouse at 100 mg/kg, po after 8 hrs by Western blot analysis; format: functional; conditions: AN3-CA
# Mus musculus [10] = assay: In vivo inhibition of AKT1 phosphorylation at Thr308 in human AN3CA cells xenografted in NCr-M nude mouse at 200 mg/kg, po after 1 hr by Western blot analysis; format: functional; conditions: AN3-CA
# [11] = Drug uptake in NCr-M nude mouse plasma xenografted with human AN3CA cells at 200 mg/kg, po after 1 hr; format: ADME, organism-based
# [12] = AUC (infinity) in monkey at 10 mg/kg administered as single dose; format: ADME, organism-based, Macaca mulatta; set-up: dose 10 mg/kg, time infinity; conditions: rhesus monkey, in vivo
# Mus musculus [13] = assay: In vivo inhibition of AKT1 phosphorylation at Ser473 in human AN3CA cells xenografted in NCr-M nude mouse at 200 mg/kg, po after 8 hrs by Western blot analysis; format: functional; conditions: AN3-CA
# Mus musculus [14] = assay: In vivo inhibition of AKT1 phosphorylation at Thr308 in human AN3CA cells xenografted in NCr-M nude mouse at 200 mg/kg, po after 8 hrs by Western blot analysis; format: functional; conditions: AN3-CA
# [15] = Half life in rat at 5 mg/kg administered as single dose; format: ADME, organism-based; conditions: in vivo
# [16] = Oral bioavailability in mouse at 100 mg/kg; format: ADME, organism-based; conditions: in vivo
# Mus musculus [17] = assay: In vivo inhibition of AKT1 phosphorylation in human AN3CA cells xenografted in NCr-M nude mouse assessed as inhibition of PRAS40 phosphorylation at Thr246 at 100 mg/kg, po after 1 hr by Western blot analysis; format: functional; conditions: AN3-CA
# Mus musculus [18] = assay: In vivo inhibition of AKT1 phosphorylation at Thr308 in human AN3CA cells xenografted in NCr-M nude mouse at 100 mg/kg, po after 1 hr by Western blot analysis; format: functional; conditions: AN3-CA
# [19] = Drug uptake in NCr-M nude mouse plasma xenografted with human AN3CA cells at 200 mg/kg, po after 8 hr; format: ADME, organism-based
# [20] = Drug uptake in NCr-M nude mouse tumor xenografted with human AN3CA cells at 200 mg/kg, po after 1 hr; format: ADME, organism-based, Neoplasm; conditions: read-out: Drug uptake
# [21] = Drug uptake in NCr-M nude mouse plasma xenografted with human AN3CA cells at 100 mg/kg, po after 1 hr; format: ADME, organism-based
# [22] = Tmax in rat at 5 mg/kg administered as single dose; format: ADME, organism-based; conditions: in vivo
# Mus musculus [23] = assay: In vivo inhibition of AKT1 phosphorylation in human AN3CA cells xenografted in NCr-M nude mouse assessed as inhibition of PRAS40 phosphorylation at Thr246 at 200 mg/kg, po after 1 hr by Western blot analysis; format: functional; conditions: AN3-CA
# Mus musculus [24] = assay: In vivo inhibition of AKT1 phosphorylation in human AN3CA cells xenografted in NCr-M nude mouse assessed as inhibition of PRAS40 phosphorylation at Thr246 at 100 mg/kg, po after 8 hrs by Western blot analysis; format: functional; conditions: AN3-CA
# [25] = AUC (infinity) in rat at 5 mg/kg administered as single dose; format: ADME, organism-based; set-up: dose 5 mg/kg, time infinity; conditions: in vivo
# [26] = Cmax in rat at 5 mg/kg administered as single dose; format: ADME, organism-based; set-up: dose 5 mg/kg; conditions: in vivo
# [27] = Tmax in monkey at 10 mg/kg administered as single dose; format: ADME, organism-based, Macaca mulatta; conditions: rhesus monkey, in vivo
# [28] = Drug uptake in NCr-M nude mouse tumor xenografted with human AN3CA cells at 100 mg/kg, po after 8 hr; format: ADME, organism-based, Neoplasm; conditions: read-out: Drug uptake
# [29] = Drug uptake in NCr-M nude mouse plasma xenografted with human AN3CA cells at 100 mg/kg, po after 8 hr; format: ADME, organism-based
# [30] = Half life in monkey at 10 mg/kg administered as single dose; format: ADME, organism-based, Macaca mulatta; conditions: rhesus monkey, in vivo
# [31] = Drug uptake in NCr-M nude mouse tumor xenografted with human AN3CA cells at 100 mg/kg, po after 1 hr; format: ADME, organism-based, Neoplasm; conditions: read-out: Drug uptake
# Mus musculus [32] = assay: In vivo inhibition of AKT1 phosphorylation at Ser473 in human AN3CA cells xenografted in NCr-M nude mouse at 100 mg/kg, po after 8 hrs by Western blot analysis; format: functional; conditions: AN3-CA
# [33] = Oral bioavailability in monkey at 10 mg/kg administered as single dose; format: ADME, organism-based, Macaca mulatta; conditions: rhesus monkey, in vivo
# Mus musculus [34] = assay: In vivo inhibition of AKT1 phosphorylation at Ser473 in human AN3CA cells xenografted in NCr-M nude mouse at 100 mg/kg, po after 1 hr by Western blot analysis; format: functional; conditions: AN3-CA
# [35] = Drug uptake in NCr-M nude mouse tumor xenografted with human AN3CA cells at 200 mg/kg, po after 8 hr; format: ADME, organism-based, Neoplasm; conditions: read-out: Drug uptake
# [36] = Cmax in monkey at 10 mg/kg administered as single dose po; format: ADME, organism-based, Macaca mulatta; set-up: dose 10 mg/kg, route oral; conditions: rhesus monkey, in vivo
# [37] = Oral bioavailability in rat at 5 mg/kg administered as single dose; format: ADME, organism-based; conditions: in vivo
# Mus musculus [38] = assay: In vivo inhibition of AKT1 phosphorylation in human AN3CA cells xenografted in NCr-M nude mouse assessed as inhibition of PRAS40 phosphorylation at Thr246 at 200 mg/kg, po after 8 hrs by Western blot analysis; format: functional; conditions: AN3-CA
# Mus musculus [39] = assay: In vivo inhibition of AKT1 phosphorylation at Ser473 in human AN3CA cells xenografted in NCr-M nude mouse at 200 mg/kg, po after 1 hr by Western blot analysis; format: functional; conditions: AN3-CA
# Sequence of RAC-gamma serine/threonine-protein kinase (Q9Y243 whole entry): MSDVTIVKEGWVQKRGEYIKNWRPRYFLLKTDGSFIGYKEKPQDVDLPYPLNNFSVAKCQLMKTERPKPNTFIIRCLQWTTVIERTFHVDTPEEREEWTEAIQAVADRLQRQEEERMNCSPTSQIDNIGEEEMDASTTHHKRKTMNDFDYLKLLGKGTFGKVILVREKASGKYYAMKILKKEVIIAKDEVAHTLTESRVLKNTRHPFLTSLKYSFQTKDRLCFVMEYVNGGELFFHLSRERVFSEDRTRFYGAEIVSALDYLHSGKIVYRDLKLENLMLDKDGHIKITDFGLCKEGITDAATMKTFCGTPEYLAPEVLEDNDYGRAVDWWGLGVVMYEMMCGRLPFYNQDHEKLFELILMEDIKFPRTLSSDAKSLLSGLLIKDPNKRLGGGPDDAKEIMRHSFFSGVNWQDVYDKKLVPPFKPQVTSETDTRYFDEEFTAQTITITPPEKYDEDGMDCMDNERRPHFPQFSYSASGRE
# Sequence of RAC-beta serine/threonine-protein kinase (P31751 whole entry): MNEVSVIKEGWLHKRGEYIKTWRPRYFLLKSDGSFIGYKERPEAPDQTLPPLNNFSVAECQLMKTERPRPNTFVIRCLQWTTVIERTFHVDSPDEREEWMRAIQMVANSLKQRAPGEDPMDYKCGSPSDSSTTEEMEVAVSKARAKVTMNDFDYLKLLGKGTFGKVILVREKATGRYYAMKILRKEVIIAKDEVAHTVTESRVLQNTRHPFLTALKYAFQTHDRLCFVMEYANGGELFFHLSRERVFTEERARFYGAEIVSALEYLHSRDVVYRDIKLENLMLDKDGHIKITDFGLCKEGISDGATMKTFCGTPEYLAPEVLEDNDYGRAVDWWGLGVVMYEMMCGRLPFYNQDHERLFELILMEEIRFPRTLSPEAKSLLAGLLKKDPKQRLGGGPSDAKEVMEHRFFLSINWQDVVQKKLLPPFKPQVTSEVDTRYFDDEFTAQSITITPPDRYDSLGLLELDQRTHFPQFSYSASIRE
structure (smiles),measurement,setting,value
Cc1ccc(-n2c(-c3cccnc3N)nc3cccnc32)cc1,IC50,[1],20 µM
same,IC50,[2],> 100 µM
Cc1cnc2c(c1)nc(-c1cccnc1N)n2-c1ccc(CN)cc1,IC50,[2],> 10 µM
NCc1ccc(-n2c(-c3cccnc3N)nc3cccnc32)cc1,IC50,[1],9.3 µM
same,IC50,[2],> 100 µM
Cl.Nc1ncccc1-c1nc2ccc(-c3cccnc3)nc2n1-c1ccc(C2(N)CCC2)cc1,half-life at 1 µM,in vitro [3],21 min
same,half-life at 1 µM,in vitro [4],37 min
same,half-life at 1 µM,in vitro [5],> 30 min
same,half-life at 1 µM,in vitro [6],31 min
same,half-life at 1 µM,in vitro [7],> 30 min
same,solubility,[8],178 µM
Cl.NCc1ccc(-n2c(-c3cccnc3N)nc3ccc(-c4ccccc4)nc32)cc1,half-life at 1 µM,in vitro [5],39 min
same,solubility,[8],188 µM
CC(C)(C)c1ccc(-n2c(-c3cccnc3N)nc3cccnc32)cc1,IC50,[1],16 µM
same,IC50,[2],71 µM
NCc1ccc(-n2c(-c3cccnc3N)nc3cc(-c4cccnc4)cnc32)cc1,IC50,[1],3.5 µM
same,IC50,[2],> 10 µM
CC(=O)Nc1cccc(-c2ccc3nc(-c4cccnc4N)n(-c4ccc(C5(N)CCC5)cc4)c3n2)c1.Cl,half-life at 1 µM,in vitro [3],50 min
same,half-life at 1 µM,in vitro [4],> 60 min
same,half-life at 1 µM,in vitro [5],> 60 min
same,half-life at 1 µM,in vitro [6],> 60 min
same,half-life at 1 µM,in vitro [7],> 60 min
same,solubility,[8],160 µM
Cl.Nc1ncccc1-c1nc2ccc(-c3ccccc3)nc2n1-c1ccc(C2(N)CCC2)cc1,inhibition in vivo at 100 mg/kg,Mus musculus [9],96.3%
same,inhibition in vivo at 200 mg/kg,Mus musculus [10],93.3%
same,concentration at 1 h,[11],2.7 µM
same,AUC(0-inf),[12],2960 ng·h/mL
same,inhibition in vivo at 200 mg/kg,Mus musculus [13],99.7%
same,half-life at 1 µM,in vitro [3],28 min
same,inhibition in vivo at 200 mg/kg,Mus musculus [14],90.8%
same,half-life,[15],1020 min
same,bioavailability,[16],23%
same,inhibition in vivo at 100 mg/kg,Mus musculus [17],57.7%
same,inhibition in vivo at 100 mg/kg,Mus musculus [18],95%
same,concentration at 8 h,[19],1 µM
same,concentration at 1 h,[20],35.8 µM
same,concentration at 1 h,[21],2.1 µM
same,Tmax,[22],480 min
same,inhibition in vivo at 200 mg/kg,Mus musculus [23],50.5%
same,inhibition in vivo at 100 mg/kg,Mus musculus [24],35.9%
same,AUC(0-inf),[25],5500 ng·h/mL
same,half-life at 1 µM,in vitro [4],18 min
same,Cmax,[26],198 ng/mL
same,Tmax,[27],258 min
same,concentration at 8 h,[28],9.6 µM
same,concentration at 8 h,[29],0.26 µM
same,half-life,[30],420 min
same,half-life at 1 µM,in vitro [5],55 min
same,concentration at 1 h,[31],21 µM
same,half-life at 1 µM,in vitro [6],17 min
same,inhibition in vivo at 100 mg/kg,Mus musculus [32],98.6%
same,bioavailability,[33],49%
same,inhibition in vivo at 100 mg/kg,Mus musculus [34],99.2%
same,concentration at 8 h,[35],27.4 µM
same,Cmax,[36],258 ng/mL
same,bioavailability,[37],62%
same,half-life at 1 µM,in vitro [7],31 min
same,solubility,[8],170 µM
same,inhibition in vivo at 200 mg/kg,Mus musculus [38],42.5%
same,inhibition in vivo at 200 mg/kg,Mus musculus [39],99.2%
CC(=O)Nc1cccc(-c2ccc3nc(-c4cccnc4N)n(-c4ccc(CN)cc4)c3n2)c1.Cl,half-life at 1 µM,in vitro [3],> 60 min
same,half-life at 1 µM,in vitro [4],45 min
same,half-life at 1 µM,in vitro [6],> 60 min
same,half-life at 1 µM,in vitro [7],> 60 min
same,solubility,[8],≥ 200 µM
Cl.Nc1cccc(-c2ccc3nc(-c4cccnc4N)n(-c4ccc(C5(N)CCC5)cc4)c3n2)c1,half-life at 1 µM,in vitro [3],> 60 min
same,half-life at 1 µM,in vitro [4],> 60 min
same,half-life at 1 µM,in vitro [5],> 60 min
same,half-life at 1 µM,in vitro [6],> 60 min
same,half-life at 1 µM,in vitro [7],> 60 min
same,solubility,[8],138 µM
